Measured values taken from patent publication US20100075957A1, “AMINODIHYDROTHIAZINE DERIVATIVES SUBSTITUTED WITH A CYCLIC GROUP” (SHIONOGI & CO., LTD., priority 2007, published 2010).

Target: T1, Recombinant human BACE-1 (Homo sapiens, UniProt P56817)
T1 construct: purchased R&D Systems
Test: Assay of β-secretase-inhibiting activity;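 further: substrate is a peptide carrying biotin and europium cryptate, after the enzyme reaction, Streptavidin-XL665 is added and incubated 1 h at 30 °C before fluorescence reading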
Type: biochemical
Settings: Recombinant human BACE-1 7.4 nM, substrate peptide 18 nM, pH 5.0, 30° C., 3 hours; Table 141; read-out: IC50

T1 sequence (P56817 46-501): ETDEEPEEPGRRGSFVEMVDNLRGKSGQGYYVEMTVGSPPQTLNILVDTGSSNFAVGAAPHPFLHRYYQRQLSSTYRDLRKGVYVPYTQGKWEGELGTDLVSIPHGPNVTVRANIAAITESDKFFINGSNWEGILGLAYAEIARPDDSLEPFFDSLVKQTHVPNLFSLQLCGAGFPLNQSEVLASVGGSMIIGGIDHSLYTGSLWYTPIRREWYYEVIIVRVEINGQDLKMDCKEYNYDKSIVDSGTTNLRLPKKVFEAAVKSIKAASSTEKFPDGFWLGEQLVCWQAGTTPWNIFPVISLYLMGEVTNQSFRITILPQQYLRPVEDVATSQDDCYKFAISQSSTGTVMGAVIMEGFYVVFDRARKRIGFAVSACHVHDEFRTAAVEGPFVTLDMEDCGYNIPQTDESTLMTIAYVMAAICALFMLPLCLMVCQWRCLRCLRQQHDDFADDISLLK

Structure (SMILES)	IC50 [µM]
CC1(C)C[C@@](C)(c2cc(NC(=O)c3ncccc3F)ccn2)N=C(N)S1 [Compound 655]	0.01
Cc1cnc(C(=O)Nc2ccc(F)c([C@@]3(C)N=C(N)SCC3(F)F)c2)cn1 [Compound 662]	0.17
COc1ncc(NC(=O)c2cnc(C)cn2)cc1[C@]1(C)CCSC(N)=N1 [Compound 680]	0.05
C[C@@]1(c2cc(NC(=O)c3cnc(NCC(F)(F)F)cn3)ccc2F)CCSC(N)=N1 [Compound 702]	0.16

More lines, now with the values ahead:

IC50 [µM]	Structure (SMILES)
0.11	C[C@]1(c2cc(NC(=O)c3ncccc3F)ccc2F)N=C(N)SCC1(F)F [Compound 660]
0.02	Cc1nc(C(=O)Nc2ccc(F)c([C@@]3(C)N=C(N)SCC3(F)F)c2)co1 [Compound 664]
0.87	CCCCc1ccc(C(=O)Nc2ccc(F)c([C@@]3(C)N=C(N)SCC3(F)F)c2)nc1 [Compound 665]
0.02	COc1nc(C(=O)Nc2ccc(F)c([C@]3(C)CCSC(N)=N3)c2)co1 [Compound 667]
0.51	C[C@@]1(c2cc(Nc3ncc4ccccn34)ccc2F)CCSC(N)=N1 [Compound 668]
0.01	C[C@@]1(c2cc(NC(=O)c3coc(C(F)(F)F)n3)ccc2F)CCSC(N)=N1 [Compound 669]
0.01	Cc1cnc(C(=O)Nc2ccc(F)c([C@@]3(C)N=C(N)SCC34CC4)c2)cn1 [Compound 674]
0.04	COc1cnc(C(=O)Nc2ccc(F)c([C@@]3(C)N=C(N)SCC3=O)c2)cn1 [Compound 689]

Same assay, conditions: Recombinant human BACE-1 7.4 nM, substrate peptide 18 nM, pH 5.0, 30° C., 3 hours; time-resolved fluorescence ratio 665/620; read-out: IC50 values (50% inhibitory concentration against the enzymatic activity)

Structure (SMILES)	IC50 [µM]
CC1(C)C[C@@](C)(c2cc(NC(=O)c3ncc(C(F)(F)F)cc3Cl)ccn2)N=C(N)S1 [Compound 656]	≤ 1
C#CCOc1cnc(C(=O)Nc2ccnc([C@]3(C)CC(C)(C)SC(N)=N3)c2)cn1 [Compound 657]	≤ 1
C#CCOc1cnc(C(=O)Nc2ccnc([C@]3(C)CCSC(N)=N3)c2)cn1 [Compound 659]	≤ 1
C[C@@]1(c2cc(NC(=O)c3cnc4ccccc4n3)ccc2F)CCSC(N)=N1 [Compound 666]	≤ 1
CCc1nc(C(=O)Nc2ccc(F)c([C@]3(C)CCSC(N)=N3)c2)co1 [Compound 670]	≤ 1
C[C@@]1(c2cc(NC(=O)c3cnc(OCC4CCO4)cn3)ccc2F)CCSC(N)=N1 (stereo partly shown) [Compound 672]	≤ 1
COc1cnc(C(=O)Nc2ccc(F)c([C@@]3(C)N=C(N)SCC34CC4)c2)cn1 [Compound 675]	≤ 1
C[C@@]1(c2cc(NC(=O)c3ncc(Cl)cc3Cl)ccn2)CCSC(N)=N1 [Compound 677]	≤ 1
COc1cnc(C(=O)Nc2ccnc([C@]3(C)CCSC(N)=N3)c2)c(C)c1 [Compound 679]	≤ 1
COc1cnc(C(=O)Nc2ccc(F)c([C@@]3(C)N=C(N)SC[C@@H]3OCc3ccccc3)c2)cn1 [Compound 683]	≤ 1
COc1cnc(C(=O)Nc2ccc(F)c([C@@]3(C)N=C(N)SC[C@H]3OCc3ccccc3)c2)cn1 [Compound 684]	≤ 1
COc1cnc(C(=O)Nc2ccnc([C@]3(C)CC(C)(C)SC(N)=N3)c2)c(C)c1 [Compound 685]	≤ 1
CC1(C)C[C@@](C)(c2cc(NC(=O)c3ncc(Cl)cc3Cl)ccn2)N=C(N)S1 [Compound 686]	≤ 1
COc1cnc(C(=O)Nc2ccnc([C@]3(C)CCSC(N)=N3)c2)c(N)n1 [Compound 691]	≤ 1
C#CCOc1cnc(C(=O)Nc2ccc(F)c([C@]3(C)CC(C)(C)SC(N)=N3)c2)cn1 [Compound 692]	≤ 1
C#CCOc1cnc(C(=O)Nc2cccc([C@]3(C)CC(C)(C)SC(N)=N3)c2)cn1 [Compound 693]	≤ 1
CC1(C)C[C@@](C)(c2cc(NC(=O)c3ccc(C#N)cn3)ccn2)N=C(N)S1 [Compound 696]	≤ 1
C#Cc1cn2cc(C(=O)Nc3ccc(F)c([C@]4(C)CCSC(N)=N4)c3)ncc2n1 [Compound 698]	≤ 1
C[C@@]1(c2cc(NC(=O)c3cnc(NCC(F)(F)F)cn3)ccc2F)CCSC(N)=N1 [Compound 702]	≤ 1

The remaining lines, values ahead:

IC50 [µM]	Structure (SMILES)
≤ 1	Cc1cnc(C(=O)Nc2ccnc([C@]3(C)CC(C)(C)SC(N)=N3)c2)cn1 [Compound 653]
≤ 1	CC1(C)C[C@@](C)(c2cc(NC(=O)c3cnc(OCCF)cn3)ccn2)N=C(N)S1 [Compound 658]
≤ 1	CC1(C)CSC(N)=N[C@]1(C)c1cc(NC(=O)c2ncccc2F)ccc1F [Compound 661]
≤ 1	COc1cnc(C(=O)Nc2ccc(F)c([C@@]3(C)N=C(N)SCC3(F)F)c2)cn1 [Compound 673]
≤ 1	C#CCOc1cnc(C(=O)Nc2ccc(F)c([C@@]3(C)N=C(N)SCC34CC4)c2)cn1 [Compound 676]
≤ 1	C[C@@]1(c2cc(NC(=O)c3ncc(C(F)(F)F)cc3Cl)ccn2)CCSC(N)=N1 [Compound 678]
≤ 1	C[C@]1(c2cc(NC(=O)c3ncc(Cl)cc3Cl)ccc2F)N=C(N)SCC1=O [Compound 687]
≤ 1	COc1cnc(C(=O)Nc2ccnc([C@]3(C)CC(C)(C)SC(N)=N3)c2)c(N)n1 [Compound 688]
≤ 1	C[C@@]1(c2cc(NC(=O)c3ncc(Cl)cc3Cl)ccc2F)CCSC(N)=N1 [Compound 690]
≤ 1	COc1cnc(C(=O)Nc2cccc([C@]3(C)CC(C)(C)SC(N)=N3)c2)cn1 [Compound 694]
≤ 1	CC#CCOc1cnc(C(=O)Nc2cccc([C@]3(C)CC(C)(C)SC(N)=N3)c2)cn1 [Compound 695]
≤ 1	C[C@@]1(c2cc(NC(=O)c3cn4cc(C#N)nc4cn3)ccc2F)CCSC(N)=N1 [Compound 697]
≤ 1	C[C@@]1(c2cc(NC(=O)c3cn4cc(C#N)nc4cn3)ccn2)CCSC(N)=N1 [Compound 699]
≤ 1	C#Cc1cn2cc(C(=O)Nc3ccnc([C@]4(C)CCSC(N)=N4)c3)ncc2n1 [Compound 700]
≤ 1	C[C@@]1(c2cc(NC(=O)c3cnc(NCC#N)cn3)ccc2F)CCSC(N)=N1 [Compound 701]
